Laboratory results: the supplement of paper PMC9103864

How the values were obtained:
[1] = test system: BMSC (primary human bone marrow mesenchymal stromal cells); test: absolute EC50 for viability; higher = less sensitive
[2] = test system: BMSC (primary human bone marrow mesenchymal stromal cells); test: drug sensitivity score (DSS); higher = more sensitive

Structure (SMILES) | absolute EC50 for viability [1] | drug sensitivity score [2]
N.N.[Cl][Pt][Cl] [Cisplatin] | 48.5 µM | 3.6
CC(C)C[C@H](NC(=O)CNC(=O)c1cc(Cl)ccc1Cl)B(O)O [Ixazomib] | > 1 µM | 0.4
Cc1cnc(-c2ccccc2C(C)C)nc1NCc1ccc(-n2ccnn2)cc1 [ML323] | > 10 µM | 0
Cc1ccc(C(=O)Nc2ccc(Oc3cc4cnn(C)c4cc3-c3cn[nH]c3)c(F)c2)c(=O)n1-c1ccc(F)cc1 [Merestinib] | > 1 µM | 1.4
C[C@@H]1CCN(C(=O)CC#N)C[C@@H]1N(C)c1ncnc2[nH]ccc12 [Tofacitinib] | > 5 µM | 0
C[C@H]1C[C@@H](n2c(Nc3ccc(OC(F)(F)F)cc3)nc3cc(CCC(=O)O)ccc32)CC(C)(C)C1 | > 10 µM | 0
CN(C)C1CCN(C(=O)c2ccc(NC(=O)Nc3ccc(-c4nc(N5CCOCC5)nc(N5CCOCC5)n4)cc3)cc2)CC1 [Gedatolisib] | 0.0437 µM | 14.3
CC(C)C[C@H](NC(=O)[C@H](CCc1ccccc1)NC(=O)CN1CCOCC1)C(=O)N[C@@H](Cc1ccccc1)C(=O)N[C@@H](CC(C)C)C(=O)[C@@]1(C)CO1 [Carfilzomib] | 0.0187 µM | 19.7
C[C@@H]1CN(Cc2ccc(F)cc2)[C@@H](C)CN1C(=O)c1cc2c(C(=O)C(=O)N(C)C)cn(C)c2cc1Cl [Talmapimod] | > 10 µM | 0
CC(=O)c1cnc2ccc(-c3cc(Cl)c(O)c(Cl)c3)nc2c1N[C@H]1CC[C@H](CN(C)C)CC1 [OTS167] | > 1 µM | 2.9
CCOc1ccccc1-n1c(C(C)N2CCN(C(=O)COc3ccc(Cl)cc3)CC2)nc2ccccc2c1=O (stereo unspecified) [Erastin] | > 10 µM | 2.1
Cc1cc(Nc2nc(N[C@@H](C)c3ncc(F)cn3)ncc2Cl)[nH]n1 [AZD1480] | > 1 µM | 0.6
CC(C)(C)c1cc(NC(=O)Nc2ccc(-c3cn4c(n3)sc3cc(OCCN5CCOCC5)ccc34)cc2)no1 [Quizartinib] | > 1 µM | 2.2
O=C1CN2Cc3c(ccc(Cl)c3Cl)N=C2N1 [Anagrelide] | > 10 µM | 0
CN1CC[C@@H](NC(=O)Nc2ccc(C#N)cc2)C[C@@H]1c1nc2ccccc2[nH]1 [Glasdegib] | > 1 µM | 0
Cc1cc(-c2nc(-c3ccc(OC(F)(F)F)cc3)no2)nn1Cc1ccnc(N2CCN(C3CC3)CC2)c1 [BAY 87-2243] | > 1 µM | 0
CCN(CC)CCOc1ccc(C(=C(Cl)c2ccccc2)c2ccccc2)cc1 [Clomifene] | > 10 µM | 0.9
FC(F)(F)c1ccc(CNc2ccc(Cc3c[nH]c4ncc(Cl)cc34)cn2)cn1 [Pexidartinib] | > 10 µM | 3.6
Cc1sc2c(c1C)C(c1ccc(Cl)cc1)=N[C@@H](CC(=O)NCCCCNC(=O)COc1cccc3c1C(=O)N(C1CCC(=O)NC1=O)C3=O)c1nnc(C)n1-2 (stereo partly specified) [dBET1] | 2.05 µM | 8.2
Nc1ncnc2c1nc(N)n2[C@@H]1O[C@H](CO)[C@@H](O)[C@H]1O [8-amino-adenosine] | 0.803 µM | 21.5

Structure (SMILES) | absolute EC50 for viability [1] | drug sensitivity score [2]
C=CCc1cccc(/C=N/NC(=O)CN2CCN(Cc3ccccc3)CC2)c1O [PAC-1] | > 10 µM | 0.5
CC(=O)c1c(C)c2cnc(Nc3ccc(N4CCNCC4)cn3)nc2n(C2CCCC2)c1=O [Palbociclib] | > 10 µM | 2.3
C=CC(=O)Nc1cccc(Nc2nc(Nc3ccc(OCCOC)cc3)ncc2F)c1 [Spebrutinib] | > 1 µM | 1.2
COc1ccc2[nH]cc(/C=C3\C(=O)Nc4ccc(NC(=O)CCN5CCCCC5)cc43)c2c1 | 7.38 µM | 9.6
CC[C@H](CC#N)OC(=O)N[C@@H](C)c1cccc(NC(=O)Nc2ccc(-c3cnco3)c(OC)c2)c1 [AVN944] | > 10 µM | 3.9
C[C@]12C=CC(=O)C=C1CC[C@@H]1[C@@H]2[C@@H](O)C[C@@]2(C)[C@H]1CC[C@]2(O)C(=O)CO [Prednisolone] | > 10 µM | 0
Nc1cccc2c1C(=O)N(C1CCC(=O)NC1=O)C2=O (stereo unspecified) [Pomalidomide] | > 10 µM | 0
O=C(CCCCCCC(=O)Nc1ccccc1)NO [Vorinostat] | 2.94 µM | 5.6
C[C@@H]1C[C@H]2[C@@H]3CCC4=CC(=O)C=C[C@]4(C)[C@@]3(F)[C@@H](O)C[C@]2(C)[C@@]1(O)C(=O)CO [Dexamethasone] | > 10 µM | 0
NC[C@@](O)(c1ccc(Cl)cc1)c1ccc(-c2cn[nH]c2)cc1 | > 10 µM | 3.3
CC(C)C[C@@H](C(=O)N[C@H](C(=O)OC1CCCC1)c1ccccc1)[C@H](O)C(=O)NO [Tosedostat] | > 10 µM | 0
O=C(/C=C\n1cnc(-c2cc(C(F)(F)F)cc(C(F)(F)F)c2)n1)NNc1cnccn1 [Selinexor] | > 10 µM | 3.1
CN(C(=O)c1ccc(F)cc1C(F)(F)F)C1CCN(c2nnc(-c3ccnn3C)c3ccccc23)CC1 [Taladegib] | > 10 µM | 0
CC(C)NC[C@@H](C(=O)N1CCN(c2ncnc3c2[C@H](C)C[C@H]3O)CC1)c1ccc(Cl)cc1 [Ipatasertib] | > 10 µM | 4.7
Cc1nc(=O)c2cc(CN(C)c3ccc(C(=O)N[C@@H](CCC(=O)O)C(=O)O)s3)ccc2[nH]1 [Raltitrexed] | > 1 µM | 0
NS(=O)(=O)NCCNc1nonc1/C(=N/O)Nc1ccc(F)c(Br)c1 [Epacadostat] | > 10 µM | 0
O=C(NC1CCNCC1)c1n[nH]cc1NC(=O)c1c(Cl)cccc1Cl [AT7519] | 0.462 µM | 12.2
CC[C@@H]1CN(C(=O)NCC(F)(F)F)C[C@@H]1c1cnc2cnc3[nH]ccc3n12 [Upadacitinib] | > 10 µM | 1.1
Nc1nc(OCc2cc(Br)cs2)c2[nH]cnc2n1 [Lomeguatrib] | > 10 µM | 0
O=C(c1ccc(OCCN2CCCCC2)cc1)c1c(-c2ccc(O)cc2)sc2cc(O)ccc12 [Raloxifene] | 7.96 µM | 2.6

Structure (SMILES) | absolute EC50 for viability [1] | drug sensitivity score [2]
O=C(/C=C/c1cccc(S(=O)(=O)Nc2ccccc2)c1)NO [Belinostat] | 2.23 µM | 7.2
CCN(CC)CCCC(C)Nc1c2ccc(Cl)cc2nc2ccc(OC)cc12 (stereo unspecified) [Mepacrine] | 1.58 µM | 17.7
CC[C@H](CO)Nc1nc(NCc2ccccc2)c2ncn(C(C)C)c2n1 [Seliciclib] | > 10 µM | 0
CNC(=O)c1cccc(-c2ccc3c(N4CCOC[C@@H]4C)nc(N4CCOC[C@@H]4C)nc3n2)c1 [Vistusertib] | 0.488 µM | 13.7
CC(C)Oc1ccc(C(=O)N[C@H](CNC(=O)CN(C)C)Cc2ccc(-c3cn4cccc([C@H](C)O)c4n3)cc2)cc1Cl | 9.93 µM | 0
COc1ccc(CCc2nc3cc(-c4c(C)noc4C)ccc3n2C[C@H](C)N2CCOCC2)cc1Cl [SGC-CBP30] | > 25 µM | 2.1
O=C(Nc1cccc(Nc2ncc(Br)c(NCCc3cnc[nH]3)n2)c1)N1CCCC1 [BX-912] | 2.17 µM | 6.7
Cc1nc(-c2cn3c(n2)-c2ccc(-c4cnn(C(C)(C)C(N)=O)c4)cc2OCC3)n(C(C)C)n1 [Taselisib] | > 1 µM | 8.9
CC/C(=C(\c1ccc(O)cc1)c1ccc(OCCN(C)C)cc1)c1ccccc1 [4-hydroxytamoxifen] | 9.93 µM | 0
CNC(=O)CN1CCC(Oc2cc3c(Nc4cccc(Cl)c4F)ncnc3cc2OC)CC1 [Sapitinib] | > 1 µM | 0
Cn1cc(C2=Nc3cc(NC(=O)C(N)C4CCCCC4)cc4c3C2=CNNC4=O)cn1 (stereo unspecified) | 1.43 µM | 9.2
CC1(C)CCC(c2ccc(Cl)cc2)=C(CN2CCN(c3ccc(C(=O)NS(=O)(=O)c4ccc(N[C@H](CCN5CCOCC5)CSc5ccccc5)c(S(=O)(=O)C(F)(F)F)c4)cc3)CC2)C1 [Navitoclax] | > 10 µM | 0
CCNCCS(=O)(=O)NC[C@@]1(c2ccccc2)SC(NC(=O)C(C)(C)C)=NN1C(=O)C(C)(C)C [Litronesib] | > 1 µM | 0
CO[C@H]1CC[C@H](N2C(=O)CNc3ncc(-c4ccc(C(C)(C)O)nc4)nc32)CC1 [CC-223] | 6.04 µM | 4.4
CO[C@H](C(=O)[C@@H](O)[C@@H](C)O)[C@@H]1Cc2cc3cc(O[C@H]4C[C@@H](O[C@@H]5C[C@@H](O)[C@H](O)[C@@H](C)O5)[C@H](O)[C@@H](C)O4)c(C)c(O)c3c(O)c2C(=O)[C@H]1O[C@H]1C[C@@H](O[C@@H]2C[C@@H](O)[C@@H](O[C@@H]3C[C@](C)(O)[C@H](O)[C@@H](C)O3)[C@@H](C)O2)[C@H](O)[C@@H](C)O1 [Plicamycin] | > 10 µM | 2.1
CN(C)C/C=C/C(=O)Nc1cccc(C(=O)Nc2cccc(Nc3ncc(Cl)c(-c4c[nH]c5ccccc45)n3)c2)c1 [THZ2] | 2.71 µM | 11.1
O=c1[nH]c(=O)n([C@H]2C[C@H](O)[C@@H](CO)O2)cc1C(F)(F)F [Trifluridine] | > 10 µM | 0
Nc1nc2[nH]cnc2c(=S)[nH]1 [Thioguanine] | 1.18 µM | 9.2
